According to patent US4198506A, “2-Carboxyalkyl-2,3-dihydro-6-mercapto-s-triazolo[4,3-b]-pyridazin-3-ones” (Bristol-Myers Company, priority 1979, dated 1980):
≈ marks a conversion by molar mass, not a printed value. Where “and” joins values, the source holds several entries; their conditions need not be identical. Equal entries are not always repeated. Where two headings read alike, the source gives them in different places.

Legend:
[1] = test system: S. aureus (sensitive); assay: In vitro activity (geometric mean MIC, serial dilution); assay type: cell-based; conditions: Staphylococcus aureus, read-out: Geometric Mean MIC
[2] = test system: S. aureus (Methicillin-R); assay: as above; assay type: cell-based; conditions: Staphylococcus aureus; 15 strains; Mueller-Hinton agar, inoculum 10^4 dilution; MIC cutoff 200 mcg./ml.
[3] = test system: D. pneumoniae; assay: as above; assay type: cell-based; conditions: Streptococcus pneumoniae; 9 strains; Mueller-Hinton agar, inoculum 10^4 dilution; MIC cutoff 200 mcg./ml.
[4] = test system: E. coli (sensitive); assay: as above; assay type: cell-based; conditions: Escherichia coli, read-out: Geometric Mean MIC
[5] = test system: E. coli (Penicillinase +); assay: as above; assay type: cell-based; conditions: Escherichia coli; 7 strains; Mueller-Hinton agar, inoculum 10^4 dilution; MIC cutoff 200 mcg./ml.; read-out: Geometric Mean MIC
[6] = test system: Proteus (indole-); assay: as above; assay type: cell-based; conditions: 6 strains; Mueller-Hinton agar, inoculum 10^4 dilution; MIC cutoff 200 mcg./ml.; read-out: Geometric Mean MIC
[7] = test system: Providencia sp.; assay: as above; assay type: cell-based; conditions: read-out: Geometric Mean MIC
[8] = test system: Klebsiella sp.; assay: as above; assay type: cell-based; conditions: 12 strains, Mueller-Hinton agar, inoculum 10^4 dilution, MIC cutoff 200 mcg./ml., read-out: Geometric Mean MIC
[9] = test system: S. marcescens; assay: as above; assay type: cell-based; conditions: Serratia marcescens; 16 strains; Mueller-Hinton agar, inoculum 10^4 dilution; MIC cutoff 200 mcg./ml.; read-out: Geometric Mean MIC
[10] = test system: E. coli; assay: In vitro antibacterial activity (Steers' agar dilution MIC); assay type: cell-based; conditions: Escherichia coli
Text: (§1) In vitro Antibacterial Activity of BB-S493 Compared with
(§2) BB-S479 and Cefamandole (Determined by Steers' Agar Dilu-
(§3) tion Method on Mueller-Hinton Agar Plate)
(§4) In vitro antibacterial activity of BB-S 525 compared with
(§5) BB-S 479 and cefamandole (determined by Steers' agar dilution
(§6) method on Mueller-Hinton agar plate)

[11] = test system: Kl. pneumoniae; assay: as above; assay type: cell-based; conditions: Klebsiella pneumoniae
Text: as §1, §2, §3, §4, §5, §6

[12] = test system: S. aureus; assay: as above; assay type: cell-based; conditions: Staphylococcus aureus
Text: as §1, §2, §3, §4, §5, §6

[13] = test system: Sal. typhosa; assay: as above; assay type: cell-based
Text: as §1, §2, §3, §4, §5, §6

[14] = test system: Shig. flexneri; assay: as above; assay type: cell-based
Text: as §1, §2, §3, §4, §5, §6

[15] = test system: Shig. sonnei; assay: as above; assay type: cell-based; conditions: Shigella sonnei
Text: as §1, §2, §3, §4, §5, §6

[16] = test system: Pr. vulgaris; assay: as above; assay type: cell-based; conditions: Proteus vulgaris
[17] = test system: Pr. mirabilis; assay: as above; assay type: cell-based; conditions: Proteus mirabilis
[18] = test system: Pr. morganii; assay: as above; assay type: cell-based; conditions: Morganella morganii
[19] = test system: Pr. rettgeri; assay: as above; assay type: cell-based; conditions: Providencia rettgeri
[20] = test system: Shig. dysenteriae; assay: as above; assay type: cell-based; conditions: Shigella dysenteriae
[21] = test system: Serr. marcescens; assay: as above; assay type: cell-based; conditions: Serratia marcescens
[22] = test system: Enterob. cloacae; assay: as above; assay type: cell-based
[23] = test system: B. anthracis; assay: microbe, parasite or virus in culture; assay type: cell-based; conditions: Bacillus anthracis
[24] = test system: S. aureus Smith; assay: In vivo activity (Mice, sc); conditions: several determinations listed
Text: |In vivo Activity of BB-[…] and Related Compounds (Mice, sc) | (PD50 (mgm./kg.)

[25] = test system: Miscellaneous (Salmonella, Shigella, Citrobacter); assay: microbe, parasite or virus in culture; conditions: read-out: Geometric Mean MIC

Q: For `Cn1nnnc1SCC1=C(C(=O)O)N2C(=O)[C@@H](NC(=O)[C@H](O)c3ccccc3)[C@H]2SC1` [Cefamandole, reference compound], which MIC [1] is on record?
A: 0.1 µg/mL (≈ 0.216 µM)

Q: What about the MIC [2] of the same compound?
A: 2.4 µg/mL (≈ 5.19 µM)

Q: And the MIC [3]?
A: 0.2 µg/mL (≈ 0.432 µM)

Q: And the MIC [4]?
A: 0.3 µg/mL (≈ 0.649 µM)

Q: What about the MIC [5] of the same compound?
A: 5.7 µg/mL (≈ 12.3 µM)

Q: What about the MIC [6] of the same compound?
A: 0.6 µg/mL (≈ 1.3 µM)

Q: What about the MIC [7] of the same compound?
A: 0.7 µg/mL (≈ 1.51 µM)

Q: What about the MIC [8] of the same compound?
A: 2.4 µg/mL (≈ 5.19 µM)

Q: What about the MIC [9] of the same compound?
A: 34 µg/mL (≈ 73.5 µM)

Q: What about the MIC ([10]; ATCC8739, table 2 (BB-S493), E. coli ATCC 8739, read-out: MIC) of the same compound?
A: 0.05 µg/mL (≈ 0.108 µM)

Q: What about the MIC ([10]; ATCC8739, table 4 (BB-S 525), E. coli ATCC 8739) of the same compound?
A: 6.3 µg/mL (≈ 13.6 µM)

Q: What about the MIC ([10]; table 2 (BB-S493), E. coli A9660, read-out: MIC) of the same compound?
A: 0.1 µg/mL (≈ 0.216 µM)

Q: What about the MIC ([10]; table 2 (BB-S493), E. coli A15147, read-out: MIC) of the same compound?
A: 3.1 µg/mL (≈ 6.7 µM)

Q: And the MIC ([10]; table 2 (BB-S493), E. coli A15810, read-out: MIC)?
A: 0.2 µg/mL (≈ 0.432 µM)

Q: What about the MIC ([10]; table 2 (BB-S493), E. coli BX-1373, read-out: MIC) of the same compound?
A: 0.4 µg/mL (≈ 0.865 µM)

Q: And the MIC ([10]; table 2 (BB-S493), E. coli Juhl A15119, read-out: MIC)?
A: 0.4 µg/mL (≈ 0.865 µM)

Q: What about the MIC ([10]; table 2 (BB-S493), E. coli NIHJ, read-out: MIC) of the same compound?
A: 0.025 µg/mL (≈ 0.0541 µM)

Q: What about the MIC ([10]; table 4 (BB-S 525), E. coli BX-1373, read-out: MIC) of the same compound?
A: 0.2 µg/mL (≈ 0.432 µM)

Q: And the MIC ([10]; table 4 (BB-S 525), E. coli Juhl, read-out: MIC)?
A: 0.4 µg/mL (≈ 0.865 µM)

Q: What about the MIC ([10]; table 4 (BB-S 525), E. coli NIHJ, read-out: MIC) of the same compound?
A: 0.1 µg/mL (≈ 0.216 µM)

Q: And the MIC ([10]; table 4 (BB-S 525), E. coli, strain not given, 1st line, read-out: MIC)?
A: 0.1 µg/mL (≈ 0.216 µM)

Q: And the MIC ([10]; table 4 (BB-S 525), E. coli, strain not given, 2nd line, read-out: MIC)?
A: 0.05 µg/mL (≈ 0.108 µM)

Q: And the MIC ([10]; table 4 (BB-S 525), E. coli, strain not given, 3rd line, read-out: MIC)?
A: 1.6 µg/mL (≈ 3.46 µM)

Q: What about the MIC ([11]; table 2 (BB-S493), Kl. pneumoniae A9678) of the same compound?
A: 1.6 µg/mL (≈ 3.46 µM)

Q: What about the MIC ([11]; table 2 (BB-S493), Kl. pneumoniae A9867) of the same compound?
A: 0.8 µg/mL (≈ 1.73 µM)

Q: And the MIC ([11]; table 2 (BB-S493), Kl. pneumoniae A9977)?
A: 0.4 µg/mL (≈ 0.865 µM)

Q: And the MIC ([11]; table 2 (BB-S493), Kl. pneumoniae A15130)?
A: 0.4 µg/mL (≈ 0.865 µM)

Q: And the MIC ([11]; table 4 (BB-S 525), Kl. pneumoniae, 1st line)?
A: 3.1 µg/mL (≈ 6.7 µM)

Q: What about the MIC ([11]; table 4 (BB-S 525), Kl. pneumoniae, 2nd line) of the same compound?
A: 0.2 µg/mL (≈ 0.432 µM)

Q: And the MIC ([11]; table 4 (BB-S 525), Kl. pneumoniae, 3rd line)?
A: 0.8 µg/mL (≈ 1.73 µM)

Q: And the MIC ([11]; table 4 (BB-S 525), Kl. pnuemoniae, 4th line)?
A: 0.8 µg/mL (≈ 1.73 µM)

Q: And the MIC ([12]; table 2 (BB-S493), S. aureus A9497)?
A: 0.05 µg/mL (≈ 0.108 µM)

Q: And the MIC ([12]; table 2 (BB-S493), S. aureus BX-1633 A9606)?
A: 0.2 µg/mL (≈ 0.432 µM)

Q: What about the MIC ([12]; table 2 (BB-S493), S. aureus Smith A9537) of the same compound?
A: 0.1 µg/mL (≈ 0.216 µM)

Q: And the MIC ([12]; table 4 (BB-S 525), S. aureus (strain not given))?
A: 0.05 µg/mL (≈ 0.108 µM)

Q: And the MIC ([12]; table 4 (BB-S 525), S. aureus BX-1633)?
A: 0.2 µg/mL (≈ 0.432 µM)

Q: And the MIC ([12]; table 4 (BB-S 525), S. aureus Smith)?
A: 0.2 µg/mL (≈ 0.432 µM)

Q: And the MIC ([13]; table 2 (BB-S493), Sal. typhosa A9498)?
A: 0.1 µg/mL (≈ 0.216 µM)

Q: And the MIC ([13]; table 4 (BB-S 525), Sal. typhosa)?
A: 0.1 µg/mL (≈ 0.216 µM)

Q: And the MIC ([14]; Shigella flexneri, table 2 (BB-S493), Shig. flexneri A9684, read-out: MIC)?
A: 3.1 µg/mL (≈ 6.7 µM)

Q: And the MIC ([14]; table 4 (BB-S 525), Shig. flexneri)?
A: 3.1 µg/mL (≈ 6.7 µM)

Q: And the MIC ([15]; table 2 (BB-S493), Shig. sonnei A9516)?
A: 0.05 µg/mL (≈ 0.108 µM)

Q: What about the MIC ([15]; table 4 (BB-S 525), Shig. sonnei) of the same compound?
A: 0.2 µg/mL (≈ 0.432 µM)

Q: And the MIC [16]?
A: 50 µg/mL (≈ 108 µM)

Q: What about the MIC ([16]; table 2 (BB-S493), Pr. vulgaris A9436, read-out: MIC) of the same compound?
A: 0.2 µg/mL (≈ 0.432 µM)

Q: And the MIC ([16]; table 2 (BB-S493), Pr. vulgaris A9699, read-out: MIC)?
A: 25 µg/mL (≈ 54.1 µM)

Q: And the MIC ([16]; table 4 (BB-S 525), Pr. vulgaris, 1st line, read-out: MIC)?
A: 0.2 µg/mL (≈ 0.432 µM)

Q: What about the MIC ([17]; table 2 (BB-S493), Pr. mirabilis A9554) of the same compound?
A: 0.8 µg/mL (≈ 1.73 µM)

Q: What about the MIC ([17]; table 2 (BB-S493), Pr. mirabilis A9900) of the same compound?
A: 0.8 µg/mL (≈ 1.73 µM)

Q: What about the MIC ([17]; table 4 (BB-S 525), Pr. mirabilis, 1st line) of the same compound?
A: 0.4 µg/mL (≈ 0.865 µM)

Q: And the MIC ([17]; table 4 (BB-S 525), Pr. mirabilis, 2nd line, read-out: MIC)?
A: 0.2 µg/mL (≈ 0.432 µM)

Q: What about the MIC ([18]; table 2 (BB-S493), Pr. morganii A9553, read-out: MIC) of the same compound?
A: > 100 µg/mL

Q: And the MIC ([18]; table 2 (BB-S493), Pr. morganii A20031)?
A: 0.8 µg/mL (≈ 1.73 µM)

Q: And the MIC ([18]; table 4 (BB-S 525), Pr. morganii, 1st line)?
A: 3.1 µg/mL (≈ 6.7 µM)

Q: And the MIC ([18]; table 4 (BB-S 525), Pr. morganii, 2nd line)?
A: 0.8 µg/mL (≈ 1.73 µM)

Q: And the MIC ([19]; table 2 (BB-S493), Pr. rettgeri A15167)?
A: 0.1 µg/mL (≈ 0.216 µM)

Q: What about the MIC ([19]; table 4 (BB-S 525), Pr. rettgeri) of the same compound?
A: 0.1 µg/mL (≈ 0.216 µM)

Q: And the MIC ([20]; table 2 (BB-S493), Shig dysenteriae)?
A: 0.2 µg/mL (≈ 0.432 µM)

Q: What about the MIC ([20]; table 4 (BB-S 525), Shig. dysenteriae) of the same compound?
A: 0.1 µg/mL (≈ 0.216 µM)

Q: What about the MIC ([21]; table 4 (BB-S 525), Serr. marcescens) of the same compound?
A: 50 µg/mL (≈ 108 µM)

Q: What about the MIC ([21]; table 2 (BB-S493), Serr. marcescens A20019) of the same compound?
A: 50 µg/mL (≈ 108 µM)

Q: And the MIC ([22]; table 2 (BB-S493), Enterob. cloacae A9656)?
A: 3.1 µg/mL (≈ 6.7 µM)

Q: And the MIC ([22]; table 4 (BB-S 525), Enterob. cloacae)?
A: 1.6 µg/mL (≈ 3.46 µM)

Q: And the MIC ([23]; table 2 (BB-S493), B. anthracis A9504)?
A: 0.2 µg/mL (≈ 0.432 µM)

Q: And the MIC ([23]; table 4 (BB-S 525), B. anthracis)?
A: 0.05 µg/mL (≈ 0.108 µM)

Q: What about the ED50 ([24]; Staphylococcus aureus, read-out: PD50) of the same compound?
A: 0.93 mg/kg

Q: What about the PD50 [24] of the same compound?
A: 0.74 mgm./kg. and 0.6 mgm./kg. and 0.8 mgm./kg.

Q: And the MIC [25]?
A: 0.3 µg/mL (≈ 0.649 µM)
